Results on 8 molecules are retold here after PubChem BioAssay (NCI).

Molecules are shown by their SMILES.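 Method: 48-hour compound exposure of cells in 96-well plates, five concentrations, linear interpolation of endpoints. TGI is the concentration that stops growth completely.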

What all share (experiment): DTP human tumour cell line panel, 48 h
The subject of assay [1] is CAKI-1 renal.
Assay [2] deals with TK-10 renal.
The test system of assay [3] is OVCAR-3 ovarian.
In assay [4] the test system is SF-268 CNS.
Assay [5] has as its system SF-295 CNS.
In assay [6] the test system is NCI/ADR-RES ovarian.
The test system of assay [7] is SF-539 CNS.
Assay [8] has as its system OVCAR-8 ovarian.
In assay [9] the test system is NCI-H23 lung.
Assay [10] has as its system MOLT-4 leukemia.
For assay [11], the system named is SR leukemia.
For assay [12], the system named is NCI-H522 lung.
The test system of assay [13] is U251 CNS.
For assay [14], the system named is PC-3 prostate.
The subject of assay [15] is SK-MEL-2 melanoma.
The test system of assay [16] is UACC-257 melanoma.
In assay [17] the test system is SK-MEL-5 melanoma.
For assay [18], the system named is HL-60(TB) leukemia.
Assay [19] deals with RPMI-8226 leukemia.

As for `Nc1nc(N)nc(-c2cnccn2)n1`, the TGI in [1], in assay [2], in assay [3], in assay [4], in [5] and in assay [6] was over 100 µM in each case. Also, the total growth inhibition concentration (TGI) in assay [7], in assay [8], in [9], in assay [10], in [11] and in assay [12] was over 100 µM throughout. For the same molecule, the TGI in assay [13], in [14], in [15] and in assay [16] was over 100 µM each time.

For the molecule `C#CCCOC1(OC)N=NC(C)(C)O1` (stereo not given), the TGI in assay [3], in assay [4], in assay [17], in [5], in assay [18] and in [6] was over 100 µM each time. Moreover, the TGI in [7], in [8], in assay [9], in assay [10], in assay [11] and in assay [12] was over 100 µM throughout. For the same molecule, the TGI in [13], in assay [14], in assay [15], in [19] and in [16] was over 100 µM in each case.

As for `C[C@H]1C(OCCOC2O[C@@H]3O[C@@]4(C)CC[C@H]5[C@H](C)CCC([C@H]2C)[C@@]35O4)O[C@@H]2O[C@@]3(C)CC[C@H]4[C@H](C)CCC1[C@@]24O3` (stereo not given in full), the TGI in [1] is over 100 µM; in assay [3], over 100 µM; in assay [4], over 100 µM; in assay [17], 32.2 µM; in [18], 74.9 µM; in assay [6], over 100 µM. The TGI in assay [7], in assay [8], in assay [9], in [10], in assay [11] and in assay [13] was over 100 µM each time. For the same molecule, the TGI is over 100 µM in [14], 42.3 µM in assay [15], over 100 µM in [19] and over 100 µM in assay [16].

As for `C[C@]12CC(c3ccccc3O1)C(C#N)C(=O)N2` (stereo not given in full), the TGI in assay [1], in assay [3], in assay [4], in assay [17], in assay [18] and in assay [6] was over 100 µM throughout. Besides, the TGI in assay [8], in assay [9], in [10], in [11], in [13] and in assay [14] was over 100 µM each time. Moreover, the TGI in assay [15], in assay [19] and in assay [16] was over 100 µM throughout.

In the case of `O=C1SC(c2ccc(Cl)cc2)(c2ccc(Cl)cc2)c2ccccc21`, the TGI in assay [1], in assay [2], in [3], in [4], in assay [17] and in assay [5] was over 100 µM in each case. The TGI in assay [18] was 96.6 µM; in [6], over 100 µM; in assay [7], over 100 µM; in assay [8] it was over 100 µM; in assay [9] it was over 100 µM; in assay [10], over 100 µM. In addition, the TGI in [12] is over 100 µM; in [13], over 100 µM; in assay [14], over 100 µM; in [15], 77.5 µM; in assay [19] it was over 100 µM; in [16] it was over 100 µM.

Regarding `CC1=CCC[C@@](C)(O)[C@@H]2C[C@H]3C(CSc4ccccc4)C(=O)O[C@H]3[C@@H](O2)[C@H](C)CCC1` (stereo not given in full), the total growth inhibition concentration (TGI) is 64.6 µM in assay [1]; 33.5 µM in [2]; 26.5 µM in assay [3]; over 100 µM in assay [4]; 38.3 µM in assay [17]; 25.3 µM in assay [5]. The TGI in [18] is over 100 µM; in assay [7] it was 30.9 µM; in [8], 32.4 µM; in assay [9], 33.8 µM; in assay [10], over 100 µM; in [11] it was over 100 µM. For the same molecule, the TGI in assay [12] amounted to 35.9 µM; in assay [13], 66.8 µM; in [14], 22.2 µM; in assay [15], 32.3 µM; in assay [19] it was 84 µM; in [16], 39.3 µM.

Take `COc1cc2c(cc1OC)C1C(O)C(OC)C=C3CC[N+](C)(C2)C31` (stereo not given): the TGI in [1], in assay [2], in assay [3], in [4], in [17] and in assay [5] was over 100 µM throughout. Also, the TGI in assay [18], in assay [6], in assay [7], in assay [8], in assay [9] and in assay [10] was over 100 µM each time. Also, the TGI in assay [12], in assay [13], in [14], in assay [15], in [19] and in assay [16] was over 100 µM each time.

Consider `COc1cccc(-c2cccc(SC)n2)n1`, for which the TGI in assay [1] was over 100 µM; in assay [2], over 100 µM; in assay [3], 61.1 µM; in [17] it was 44 µM; in [5], over 100 µM; in [18], 31 µM. The TGI is over 100 µM in assay [6]; over 100 µM in assay [7]; over 100 µM in assay [8]; over 100 µM in assay [9]; over 100 µM in [10]; 55.5 µM in assay [11]. The TGI in assay [13] is over 100 µM; in assay [14] it was over 100 µM; in assay [15] it was over 100 µM; in [19] it was 78.1 µM; in assay [16], 98.9 µM.
